Measured values: US4110460A, “2,3-Dihydro-imidazo[2,1-b]-thiazole derivatives and applications thereof” (Metabio, priority 1976, dated 1978)

How the values were obtained:
[1] = system: carrageenin-induced edema of the rear limb of rats; assay: carrageenin-induced edema of the rear limb of rats (anti-inflammatory activity); format: in vivo, rat; design: Anti-inflammatory activity (carrageenin-induced edema): key to the marks not given beside the values; details: for Anti-inflammatory activity (carrageenin-induced edema): oral, rats, after 1.5 hour, rated + to ++++; for ED30 / ED40: carrageenin-induced edema in rat; for ED30: read-out: AD30; for ED40: read-out: AD40
Excerpt: The anti-inflammatory action of the various compounds is rated, according to its intensity, with 1 + to 4 +'s in the following Table.
1. Carrageenin-induced edema in rat

[2] = system: writhing induced by intraperitoneal acetic acid in mice; assay: acetic acid writhing test in mice (analgesic activity); format: in vivo, mouse; design: key to Analgesic activity (writhing test): rated, according to its intensity, with from 1 + to 4 +'s, with from 1 + to 4 +'s; ++++: rated, according to its intensity, with from 1 + to 4 +'s; details: for Analgesic activity (writhing test): oral, mice, 0.5 hour prior to i.p. acetic acid, 15 minutes recording, rated + to ++++
Method: The analgesic activity was determined according to the conventional testing methods for said activity: the writhing test. Mice are given a single intraperitoneal injection of 0.2 ml 6°/129 acetic acid.
The test compound is administered orally 0.5 hour prior to the acetic acid injection. The number of characteristic writhing movements inducted by pain is recorded during the 15 minutes which follow the acetic acid injection.
The analgesic action of the various derivatives is rated, according to its intensity, with from 1 + to 4 +'s in the following table.

male mice = assay: acute oral toxicity in male mice; format: in vivo
Method: (§1) Acute toxicity was determined orally in male mice.

[3] = system: cotton-induced granuloma in rat; assay: cotton-induced granuloma in rat; format: in vivo; details: male rats, oral during 7 days
Method: The test is conducted according to the technique of […]. Am. Chem. Soc., 80, 3161, 1958) The male rats are distributed in randomized groups, slightly anesthetized and depilated in the dorsal area. An incision of about 1 cm is effected along the spine, and 2 pellets of carded cotton weighing each 20 mg are placed under the skin on both sides of the neck. The treatments are administered orally during 7 days, as suspensions in BT medium. The reference group is administered BT medium alone, under the same experimental conditions. 24 hours after the last ingestion, the pellets are excised and weighed.

[4] = system: ultra-violet induced erythema in guinea-pigs; assay: ultra-violet induced erythema in guinea-pigs; format: in vivo, guinea-pig; details: intragastric
Method: Erythema is induced in depilated guinea-pigs placed at a distance of 25 cm from a 300 watt mercury vapor lamp.
The back of the guinea-pigs is covered with a coat of flexible rubber in which 3 circular perforations 8 mm in diameter are effected. Blind evaluation of the erythema is carried out, 2 hrs and 5 hrs after irradiation.
The treatment is administered by the intragastric route, under a volume of 5 ml/kg.

[5] = system: Freund-adjuvant induced arthritis in rats; assay: Freund-adjuvant induced arthritis in rats; format: in vivo; details: Rattus norvegicus, limb volume, X-ray examination, weight curve, lowest active dosage, read-out: inhibiting activity on the development of adjuvant-induced polyarthritis, apparent from a dosage of
Method: Injection of Mycobacterium butyricum is carried out at the level of the hind limb of rats, and produces as early as the 10th day an arthritis which develops rapidly.
The inhibiting activity of the compound of Example 1 on the development of adjuvant-induced polyarthritis in rats is apparent from a dosage of 5 mg/kg.

[6] = system: hyperthermia induced in rats by subcutaneous injection of barm; assay: antipyretic activity, barm (yeast)-induced hyperthermia in rats; format: in vivo, rat; details: po, intragastric, 17 hours after yeast injection, lowest active dosage, read-out: active from a dosage of (antipyretic activity)
Method: Hyperthermia is induced in rats by subcutaneous injection of barm, at a dosage of 4 g/kg.
The treatments are administered by the intragastric route, 17 hours after yeast injection.
The change in rectal temperature of the rats is compared, as a function of time, in the absolute reference animals, the "barm" reference animals and the treated animals.

rats = assay: chronic toxicity tests in rats; format: in vivo, rat; details: 40 mg/kg/day
fasting rats = assay: ulcerogenic activity in fasting rats; format: in vivo, rat
[7] = acute oral toxicity in male mice; format: in vivo; details: mouse, in vivo, po, male mice; read-out: LD50 per os
Method: as §1

Structure (SMILES)	Anti-inflammatory activity (carrageenin-induced edema) [1]	ED30 ([1]; po, 1.5 h)	ED40 ([1]; po, 1.5 h)	Analgesic activity (writhing test) [2]	LD50 [7]	further results
COc1ccc(-c2nc3n(c2-c2ccc(OC)cc2)CCS3)cc1 [Example 1, 2,3-dihydro-5,6-(bis-paramethoxyphenyl)-imidazo[2,1-b]-thiazole]	++++	5.22 mg/kg	7.78 mg/kg	++++		minimal effective dose ([1]; po, 1.5 h, rat, lowest active dosage, read-out: active from a dosage of (carrageenin-induced edema)): 3.38 mg/kg; analgesic activity on visceral pain ([2]; acetic acid writhing test in mice, in words): highly marked analgesic activity on visceral pain; LD50 per os (male mice; mouse, in vivo, po): > 4,200 mg/kg; activity relative to phenylbutazone (granuloma) [3]: twice as active as phenylbutazone; inhibition of the development of a granuloma [3]: inhibits the development of a granuloma; protective activity, dependence on dosage (erythema) [4]: proportional to the dosage administered; protective activity still maintained ... hours after administration ([4]; duration): ≥ 6 h; protective activity highly marked as early as the first ... hours ([4]; onset): ≤ 3 h; minimal effective dose [5]: 5 mg/kg; minimal effective dose [6]: 3.38 mg/kg; major side-effects (chronic toxicity) (rats): failed to provide evidence of any major side-effects; ulcerogenic activity (fasting rats): low ulcerogenic activity found in fasting rats is equivalent to that of the reference materials
COc1ccc(-c2nc3n(c2-c2ccc(OC)cc2)CC(C)S3)cc1 (centres unmarked) [Example 3, 2-methyl-2,3-dihydro-5,6-(bis-paramethoxyphenyl)-imidazo[2,1-b]-thiazole]	+++			+++	> 2000 mg/kg	
COc1ccc(-c2nc3n(c2-c2ccc(OC)cc2)C(C)CS3)cc1 (centres unmarked) [Example 4, 3-methyl-2,3-dihydro-5,6-(bis-paramethoxyphenyl)-imidazo[2,1-b]-thiazole]				+++	> 2000 mg/kg	
COc1ccc(-c2nc3n(c2-c2ccc(OC)cc2)C(C)C(C)S3)cc1 (centres unmarked) [Example 7, 2,3-dimethyl-2,3-dihydro-5,6-bis(p-methoxyphenyl)-imidazo[2,1-b]-thiazole]	+++			++++		
COc1ccc(-c2nc3n(c2-c2ccc(OC)cc2)CCS3)cc1 [Example 22]						LD50 per os (male mice; oral, male mice): > 2,000 mg/kg
CCCCC1C(=O)N(c2ccccc2)N(c2ccccc2)C1=O [Phenylbutazone, reference compound]		16.1 mg/kg	27.4 mg/kg			
